Consider ten molecules from patent US9676782B2, “Substituted pyrazolo[1,5-a]pyrazines as negative allosteric modulators of metabotropic glutamate receptor 3” (Vanderbilt University, priority 2014, dated 2017).

One test has as its target rat mGlu3 (Rattus norvegicus (Rat), UniProt P31422). The test is described as follows: mGlu3 Ca2+ flux assay. The following applies: for remaining activity at 30 µM: amplitude of response at 30 μM test compound as % of maximal response to glutamate, read-out: rat mGlu3 Glu max (%); for mGlu3 Glu max: response at 30 μM compound as percentage of maximal glutamate response. Format: cell-based. How it is done: (§1) The cells were grown overnight at 37° C. in the presence of 5% CO2. […] Dye was removed, 20 μL of assay buffer was added, and the plate was incubated for 10 minutes at room temperature. Ca^2+ flux was measured using the Functional Drug Screening System (FDSS7000, Hamamatsu, Japan). […] All test compounds were dissolved and diluted to a concentration of 10 mM in 100% DMSO. […] Calcium fluorescence measures were recorded as fold over basal fluorescence; raw data was then normalized to the maximal response to glutamate. […] The raw data file containing all time points was used as the data source in the analysis template. This was saved by the FDSS as a tab-delimited text file. Data were normalized using a static ratio function (F/F0) for each measurement of the total 360 values per well divided by each well's initial value. […] This is sufficient time to capture the peak amplitude of the cellular calcium response. […] EC50 values for test compounds were generated by fitting the normalized values versus the log of the test compound concentration (in mol/L) using a 4 parameter logistic equation where none of the parameters were fixed. Each of the three values collected at each concentration of test compound were weighted evenly.
For orientation: Calcium assays in cells follow changes in intracellular calcium, usually with a dye or a luminescent sensor.

For another test, the target named is rat mGlu5 (Rattus norvegicus (Rat), UniProt P31424). The test is described as follows: mGlu5 Ca2+ flux assay. The following applies: for Fold selectivity (mGlu3 vs. mGlu5): ratio of rat mGlu5 EC50 or IC50 to rat mGlu3 IC50; for mGlu5 Glu max: response at 30 μM compound as percentage of maximal glutamate response. Type of test: cell-based. Here is the method:
as §1, with “for 5” for “for 10”

Setting [1] is: NAM potency, decrease of glutamate EC80 response, >30,000 = no measurable activity, >10,000 = no plateau, read-out: rat mGlu3 IC50.
The mark [2] stands for this setting: read-out: rat mGlu5 EC50 or IC50.

Like-named read-outs stand apart in the source and are kept apart here. Where only a bound is given, the exact number is not on record here.

rat mGlu5, sequence (P31424 21-1203): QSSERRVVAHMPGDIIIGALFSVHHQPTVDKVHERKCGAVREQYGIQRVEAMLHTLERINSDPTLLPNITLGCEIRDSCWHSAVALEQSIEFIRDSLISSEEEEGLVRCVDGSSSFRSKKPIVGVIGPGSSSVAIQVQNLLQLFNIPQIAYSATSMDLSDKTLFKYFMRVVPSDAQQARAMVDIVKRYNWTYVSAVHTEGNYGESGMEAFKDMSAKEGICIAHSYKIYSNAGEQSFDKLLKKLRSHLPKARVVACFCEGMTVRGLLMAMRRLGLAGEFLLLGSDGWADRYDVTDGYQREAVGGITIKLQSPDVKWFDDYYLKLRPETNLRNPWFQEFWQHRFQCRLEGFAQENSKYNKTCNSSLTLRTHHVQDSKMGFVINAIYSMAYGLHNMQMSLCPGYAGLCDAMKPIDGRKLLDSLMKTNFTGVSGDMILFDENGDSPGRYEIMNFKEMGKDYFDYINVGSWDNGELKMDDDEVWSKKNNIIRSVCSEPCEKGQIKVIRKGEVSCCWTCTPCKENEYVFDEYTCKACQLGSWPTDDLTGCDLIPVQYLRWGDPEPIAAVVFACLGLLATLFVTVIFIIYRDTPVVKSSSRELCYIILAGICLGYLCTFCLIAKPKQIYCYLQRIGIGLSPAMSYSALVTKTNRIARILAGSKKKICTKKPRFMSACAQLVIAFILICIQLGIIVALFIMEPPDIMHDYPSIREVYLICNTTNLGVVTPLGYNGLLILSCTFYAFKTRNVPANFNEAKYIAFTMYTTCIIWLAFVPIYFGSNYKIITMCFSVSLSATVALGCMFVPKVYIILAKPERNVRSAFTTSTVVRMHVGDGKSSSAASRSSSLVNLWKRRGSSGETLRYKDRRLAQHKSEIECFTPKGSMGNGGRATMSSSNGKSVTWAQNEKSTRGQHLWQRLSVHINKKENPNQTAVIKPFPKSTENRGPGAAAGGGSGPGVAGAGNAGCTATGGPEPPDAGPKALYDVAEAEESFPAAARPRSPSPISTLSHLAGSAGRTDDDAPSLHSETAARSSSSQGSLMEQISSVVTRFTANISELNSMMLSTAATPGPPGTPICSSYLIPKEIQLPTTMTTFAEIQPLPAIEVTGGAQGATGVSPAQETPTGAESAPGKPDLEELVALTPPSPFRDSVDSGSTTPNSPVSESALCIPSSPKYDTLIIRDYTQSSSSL
rat mGlu3, sequence (P31422 23-879): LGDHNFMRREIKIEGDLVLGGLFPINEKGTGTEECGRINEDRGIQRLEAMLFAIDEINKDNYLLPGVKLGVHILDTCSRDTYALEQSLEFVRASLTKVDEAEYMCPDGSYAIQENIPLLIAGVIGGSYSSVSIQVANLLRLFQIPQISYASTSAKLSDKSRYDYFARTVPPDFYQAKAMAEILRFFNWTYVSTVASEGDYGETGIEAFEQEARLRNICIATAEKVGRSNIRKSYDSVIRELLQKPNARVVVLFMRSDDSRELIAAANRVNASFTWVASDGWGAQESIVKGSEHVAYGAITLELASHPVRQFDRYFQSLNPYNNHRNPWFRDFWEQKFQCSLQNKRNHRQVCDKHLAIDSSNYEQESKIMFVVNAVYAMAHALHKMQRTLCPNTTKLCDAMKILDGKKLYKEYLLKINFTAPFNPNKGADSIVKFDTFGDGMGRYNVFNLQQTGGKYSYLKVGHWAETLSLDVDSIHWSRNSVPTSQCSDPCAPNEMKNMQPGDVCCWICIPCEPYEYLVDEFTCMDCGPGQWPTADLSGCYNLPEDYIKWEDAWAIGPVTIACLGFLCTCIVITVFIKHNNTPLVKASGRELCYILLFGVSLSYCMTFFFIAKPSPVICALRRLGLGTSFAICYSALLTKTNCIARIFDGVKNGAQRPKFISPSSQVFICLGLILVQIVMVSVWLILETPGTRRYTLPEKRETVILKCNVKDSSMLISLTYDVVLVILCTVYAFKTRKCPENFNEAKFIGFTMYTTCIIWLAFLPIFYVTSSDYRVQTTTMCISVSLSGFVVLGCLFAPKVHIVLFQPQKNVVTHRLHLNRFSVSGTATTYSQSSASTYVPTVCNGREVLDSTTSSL

What is called IC50 is the midpoint of a concentration-inhibition curve. What is called EC50 is the concentration giving half of the maximal effect. On to `COc1ccc(N(C)Cc2cc3n(n2)CCN(c2cccc(F)c2)C3=O)cc1` [Compound 101, 5-(3-fluorophenyl)-2-(((4-methoxyphenyl)(methyl)amino)methyl)-6,7-dihydropyrazolo[1,5-a]pyrazin-4(5H)-one], for which the IC50 at rat mGlu3 (setting [1]) was determined as 783 nM. In addition, the remaining activity at 30 µM on rat mGlu3 was 1.57%. In addition, the “Fold selectivity (mGlu3 vs. mGlu5)” value on rat mGlu5 was more than 38. The EC50 at rat mGlu5 (setting [2]) is more than 30 µM.

For `O=C1c2cc(COc3ccc(F)cc3)nn2CCN1c1ccc(F)cc1` [drawing 32 X = O, reference compound], on rat mGlu3 (Table 2 compounds with X = O, read-out: mGlu3 IC50), the IC50 stood at 108 nM. In addition, on rat mGlu3 (Table 2 compounds with X = O), the “mGlu3 Glu max” value was determined as 1%. Also, the EC50 at rat mGlu5 (Table 2 compounds with X = O, read-out: mGlu5 EC50) was determined as 0.106 µM. Further, at rat mGlu5 (Table 2 compounds with X = O), the “mGlu5 Glu max” value was 71%.

Take `CN(Cc1cc2n(n1)CCN(c1ccc(F)cc1)C2=O)c1cccc(F)c1` [drawing 31 X = NMe]: on rat mGlu3 (Table 2 compounds with X = NMe, read-out: mGlu3 IC50), the IC50 was 594 nM. For the same molecule, the “mGlu3 Glu max” value on rat mGlu3 (Table 2 compounds with X = NMe) is 2%. For the same molecule, the EC50 at rat mGlu5 (Table 2 compounds with X = NMe, read-out: mGlu5 EC50) worked out at 7.76 µM. In addition, the “mGlu5 Glu max” value on rat mGlu5 (Table 2 compounds with X = NMe) turned out to be 110%.

In the case of `COc1ccc(N(C)Cc2cc3n(n2)CCN(c2csc(C)n2)C3=O)cc1` [Compound 115, 2-(((4-methoxyphenyl)(methyl)amino)methyl)-5-(2-methylthiazol-4-yl)-6,7-dihydropyrazolo[1,5-a]pyrazin-4(5H)-one], the IC50 on rat mGlu3 (setting [1]) amounted to 1620 nM. The remaining activity at 30 µM on rat mGlu3 turned out to be 3.88%. Further, on rat mGlu5, the “Fold selectivity (mGlu3 vs. mGlu5)” value is on record as more than 18. In addition, the EC50 at rat mGlu5 (setting [2]) is more than 30 µM.

In the case of `Cc1cccc(NCc2cc3n(n2)[C@@H](C)CN(c2ccc(F)cc2)C3=O)c1` [Compound 51, (S)-5-(4-fluorophenyl)-7-methyl-2-((m-tolylamino)methyl)-6,7-dihydropyrazolo[1,5-a]pyrazin-4(5H)-one], the IC50 at rat mGlu3 (setting [1]) was 3010 nM. For the same molecule, the remaining activity at 30 µM at rat mGlu3 was 3.21%. For the same molecule, on rat mGlu5 (PAM, amplitude of response at 30 μM test compound as % of maximal response to glutamate, read-out: rat mGlu5 Glu max (%)), the Emax at 30 µM stood at 86.2%. Also, on rat mGlu5, the “Fold selectivity (mGlu3 vs. mGlu5)” value came out at 2.53. Besides, the EC50 at rat mGlu5 (setting [2]) worked out at 7.61 µM.

On to `O=C1c2cc(CNc3ncccc3F)nn2CCN1c1ccc(F)cc1` [Compound 165, 5-(4-fluorophenyl)-2-(((3-fluoropyridin-2-yl)amino)methyl)-6,7-dihydropyrazolo[1,5-a]pyrazin-4(5H)-one], for which the IC50 at rat mGlu3 (setting [1]) worked out at 2110 nM. Besides, the remaining activity at 30 µM at rat mGlu3 turned out to be 1.66%. Also, on rat mGlu5, the “Fold selectivity (mGlu3 vs. mGlu5)” value was more than 14. Besides, the EC50 on rat mGlu5 (setting [2]) was more than 30 µM.

Consider `COc1ccc(NCc2cc3n(n2)[C@@H](C)CN(c2ccc(F)cc2)C3=O)cc1` [Compound 63, (S)-5-(4-fluorophenyl)-2-(((4-methoxyphenyl)amino)methyl)-7-methyl-6,7-dihydropyrazolo[1,5-a]pyrazin-4(5H)-one], for which, on rat mGlu3 (setting [1]), the IC50 was 8370 nM. Besides, the remaining activity at 30 µM on rat mGlu3 is -0.6%. For the same molecule, the “Fold selectivity (mGlu3 vs. mGlu5)” value at rat mGlu5 was more than 3.5. Moreover, the EC50 at rat mGlu5 (setting [2]) is more than 30 µM.

For `O=C1c2cc(CNc3ccc(OC(F)F)cc3F)nn2CCN1c1ccc(F)c(F)c1` [Compound 145, 2-(((4-(difluoromethoxy)-2-fluorophenyl)amino)methyl)-5-(3,4-difluorophenyl)-6,7-dihydropyrazolo[1,5-a]pyrazin-4(5H)-one], on rat mGlu3 (setting [1]), the IC50 was determined as 800 nM. In addition, on rat mGlu3, the remaining activity at 30 µM worked out at 2.55%. Also, the “Fold selectivity (mGlu3 vs. mGlu5)” value on rat mGlu5 was more than 37. In addition, the EC50 on rat mGlu5 (setting [2]) was more than 30 µM.

As for `O=C1c2cc(CNc3ccc(OC(F)F)cc3F)nn2CCN1c1cc(Cl)ccn1` [Compound 139, 5-(4-chloropyridin-2-yl)-2-(((4-(difluoromethoxy)-2-fluorophenyl)amino)methyl)-6,7-dihydropyrazolo[1,5-a]pyrazin-4(5H)-one], the IC50 on rat mGlu3 (setting [1]) worked out at 1760 nM. Further, the remaining activity at 30 µM on rat mGlu3 was found to be 2.59%. Further, the “Fold selectivity (mGlu3 vs. mGlu5)” value on rat mGlu5 is listed as more than 17. In addition, the EC50 at rat mGlu5 (setting [2]) is more than 30 µM.

As to `Cc1ccc(NCc2cc3n(n2)CCN(c2ccc(F)cc2)C3=O)cc1` [Compound 14, 5-(4-fluorophenyl)-2-((p-tolylamino)methyl)-6,7-dihydropyrazolo[1,5-a]pyrazin-4(5H)-one], at rat mGlu3 (setting [1]), the IC50 was found to be 1540 nM. Further, the remaining activity at 30 µM at rat mGlu3 was -11.8%. Also, the “Fold selectivity (mGlu3 vs. mGlu5)” value on rat mGlu5 was more than 19. Also, the EC50 on rat mGlu5 (setting [2]) was more than 30 µM.
